Experimental data as given in the supplement of paper PMC9938120.

Columns and labels:
Assay in all cases: drug sensitivity score (DSS3, normalised partial AUC of % inhibition dose-response) (DSS (score)); higher = more sensitive (stronger inhibition of viability); extreme values may be limits of the assay
[1] = tested on: FMOC02_3 (patient-derived low-grade serous ovarian cancer cells); conditions: 72 h; library: FO5A; assay format: 2D, 384-well, CellTiter-Glo
Outline: (§1)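 Cells were dispensed onto 384-well flat clear-bottom plates already holding compounds at five concentrations over a 10,000-fold range, using patient-derived ovarian cancer cells at passage under 10. Incubation lasted 72 h at 37 °C in 5% CO2, after which CellTiter-Glo viability data were processed in Breeze. Higher drug sensitivity scores, each a partial area under the percent-inhibition dose-response curve divided by the log of the upper asymptote, mean more sensitive cells.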

[2] = tested on: FMOC09 (patient-derived high-grade serous ovarian cancer cells); conditions: 72 h; library: FO5A; assay format: 2D, 384-well, CellTiter-Glo
Outline: as §1

[3] = tested on: FMOC06 (patient-derived mucinous ovarian cancer cells); conditions: 72 h; library: FO5A; assay format: 2D, 384-well, CellTiter-Glo
Outline: as §1

[4] = tested on: FMOC25_2 (patient-derived low-grade serous ovarian cancer cells); conditions: 72 h; library: FO5A; assay format: 2D, 384-well, CellTiter-Glo
Outline: as §1

[5] = tested on: FMOC03 (patient-derived mucinous ovarian cancer cells); conditions: 72 h; library: FO5A; assay format: 2D, 384-well, CellTiter-Glo
Outline: as §1

[6] = tested on: FMOC11 (patient-derived high-grade serous ovarian cancer cells); conditions: 72 h; library: FO5A; assay format: 2D, 384-well, CellTiter-Glo
Outline: as §1

[7] = tested on: FMOC27 (patient-derived low-grade serous ovarian cancer cells); conditions: 72 h; library: FO5A; assay format: 2D, 384-well, CellTiter-Glo
Outline: as §1

[8] = tested on: FMOC02_1 (patient-derived low-grade serous ovarian cancer cells); conditions: 72 h; library: FO5A; assay format: 2D, 384-well, CellTiter-Glo
Outline: as §1

[9] = tested on: FMOC17 (patient-derived low-grade serous ovarian cancer cells); conditions: 72 h; library: FO5A; assay format: 2D, 384-well, CellTiter-Glo
Outline: as §1

[10] = tested on: FMOC25_1 (patient-derived low-grade serous ovarian cancer cells); conditions: 72 h; library: FO4B; assay format: 2D, 384-well, CellTiter-Glo
Outline: as §1

[11] = tested on: FMOC22 (patient-derived mucinous ovarian cancer cells); conditions: 72 h; library: FO5A; assay format: 2D, 384-well, CellTiter-Glo
Outline: as §1

[12] = tested on: FMOC28 (patient-derived low-grade serous ovarian cancer cells); conditions: 72 h; library: FO5A; assay format: 2D, 384-well, CellTiter-Glo
Outline: as §1

[13] = tested on: FMOC04 (patient-derived high-grade serous ovarian cancer cells); conditions: 72 h; library: FO5A; assay format: 2D, 384-well, CellTiter-Glo
Outline: as §1

[14] = tested on: FMOC14 (patient-derived high-grade serous ovarian cancer cells); conditions: 72 h; library: FO5A; assay format: 2D, 384-well, CellTiter-Glo
Outline: as §1

[15] = tested on: FMOC24 (patient-derived high-grade serous ovarian cancer cells); conditions: 72 h; library: FO5A; assay format: 2D, 384-well, CellTiter-Glo
Outline: as §1

[16] = tested on: FMOC02_2 (patient-derived low-grade serous ovarian cancer cells); conditions: 72 h; library: FO5A; assay format: 2D, 384-well, CellTiter-Glo
Outline: as §1

| Structure (SMILES) | drug sensitivity score [1] | drug sensitivity score [2] | drug sensitivity score [3] | drug sensitivity score [4] | drug sensitivity score [5] | drug sensitivity score [6] | drug sensitivity score [7] | drug sensitivity score [8] | drug sensitivity score [9] | drug sensitivity score [10] | drug sensitivity score [11] | drug sensitivity score [12] | drug sensitivity score [13] | drug sensitivity score [14] | drug sensitivity score [15] | drug sensitivity score [16] |
| --- | --- | --- | --- | --- | --- | --- | --- | --- | --- | --- | --- | --- | --- | --- | --- | --- |
| NC(=O)c1cccc2cn(-c3ccc([C@@H]4CCCNC4)cc3)nc12 [Niraparib] | 6.6 | 1.6 | 1.5 | 4.8 | 0 | 1.4 | 3.2 | 4.2 | 0 | 1.5 | 1.9 | 5.4 | 0.55 | 0 | 5.55 | 2.6 |
| N#Cc1ccc2[nH]c(O)c(-c3ccc(CN4CCOCC4)cn3)c2c1 [AZD-1080] | 5.1 | 0 | 0 | 5.3 | 0 | 0 | 0 | 1.4 | 0.4 | 0 | 0 | 0 | 0.15 | 0 | 1.15 | 0 |
| CN(C)C(=N)NC(=N)N [Metformin] | 0 | 0 | 0 | 0 | 0 | 0 | 0 | 0 | 0 | 0 | 0 | 0 | 0 | 0 | 0 | 0 |
| OC[C@H]1O[C@@H](n2cnc3c2N=CNC[C@H]3O)C[C@@H]1O [Pentostatin] | 0 | 0 | 0 | 0 | 0 | 0 | 0 | 0 | 0 | 0 | 0 | 0 | 0 | 0 | 0 | 0 |
| CS(=O)(=O)c1ccc(C(=O)Nc2ccc(Cl)c(-c3ccccn3)c2)c(Cl)c1 [Vismodegib] | 0 | 0 | 0.3 | 0 | 0.6 | 0 | 0.8 | 0 | 0 | 0 | 0 | 0 | 0 | 0 | 1.95 | 0.4 |
| O=C(O)CC1CC(c2ccccc2)=NO1 (centres undefined) [VGX-1027] | 0 | 0 | 0 | 0 | 0 | 0 | 0 | 0 | 0 | 0 | 0 | 0 | 0 | 0 | 0 | 0 |
| CC(C)N(CCCNC(=O)Nc1ccc(C(C)(C)C)cc1)C[C@H]1O[C@@H](n2cc(Br)c3c(N)ncnc32)[C@H](O)[C@@H]1O [SGC0946] | 0.9 | 0 | 1.4 | 2.5 | 0.1 | 0.6 | 1.8 | 1.2 | 2 | 0 | 0.1 | 3.3 | 0.95 | 0 | 3.95 | 2.8 |
| O=S(=O)(c1cccc2c(O)nccc12)N1CCCNCC1 [Hydroxyfasudil] | 0 | 0 | 0 | 0 | 0 | 0 | 0 | 0 | 0 | 0 | 0 | 0 | 0 | 0 | 1.25 | 0 |
| CC1CCC(n2c3cnccc3c3cnc(Nc4ccc5c(n4)CCN(C(=O)CO)C5)nc32)CC1 (centres undefined) [AMG-925] | 1.3 | 0 | 0 | 0.5 | 0 | 0 | 0.9 | 0 | 0 | 0.7 | 0.2 | 0 | 0 | 0 | 0 | 0 |
| CCOc1ccn(-c2ccc(F)cc2)c(=O)c1C(=O)Nc1ccc(Oc2ccnc(N)c2Cl)c(F)c1 | 0 | 0 | 0 | 0 | 0 | 0 | 0 | 0 | 0 | 0 | 0 | 0 | 0 | 0 | 0 | 0.9 |
| Cc1cc(Nc2ncc(Cl)c(Nc3ccccc3S(=O)(=O)C(C)C)n2)c(OC(C)C)cc1C1CCNCC1 [Ceritinib] | 4.3 | 3.1 | 3.7 | 4.8 | 1.5 | 0.5 | 2.2 | 2.6 | 2.4 | 0.6 | 1.7 | 0 | 3.15 | 0 | 0.35 | 4.2 |
| O=c1[nH]cc(F)c(=O)[nH]1 [Fluorouracil] | 3.6 | 0 | 0 | 4.3 | 0 | 0 | 0 | 2.3 | 1 | 3.1 | 2.2 | 1.2 | 2.65 | 0 | 0.1 | 1.8 |
| CC1(C)NC(=O)N(c2ccc([N+](=O)[O-])c(C(F)(F)F)c2)C1=O [Nilutamide] | 0 | 0 | 0 | 0 | 0 | 0 | 0.1 | 0 | 0.5 | 0 | 0 | 0 | 0 | 0 | 0.65 | 0 |
| Cc1ccc(NC(=O)c2ccc(CN3CC[C@H](N(C)C)C3)c(C(F)(F)F)c2)cc1Nc1nccc(-c2cncnc2)n1 [Bafetinib] | 0.1 | 0 | 0 | 0 | 0 | 0 | 0 | 0.2 | 0 | 0 | 0 | 0.1 | 0 | 0 | 0 | 0 |
| CN(c1ncccc1CNc1nc(Nc2ccc3c(c2)CC(=O)N3)ncc1C(F)(F)F)S(C)(=O)=O | 9.5 | 5.1 | 6.6 | 7.8 | 7.1 | 4.9 | 5.2 | 6.6 | 7 | 3.9 | 5.7 | 7.9 | 5.3 | 3.6 | 5.3 | 9.4 |
| Cn1cc(-c2cnn3c(N)c(Br)c([C@@H]4CCCNC4)nc23)cn1 [MK-8776] | 1.5 | 0 | 0 | 2.8 | 0 | 2.4 | 0 | 2 | 0.6 | 1.4 | 0 | 2.5 | 2.45 | 0.9 | 0.3 | 0 |
| NS(=O)(=O)NCCNc1nonc1/C(=N/O)Nc1ccc(F)c(Br)c1 [Epacadostat] | 0.4 | 0 | 0.1 | 0 | 0 | 0 | 0 | 0 | 0 | 0 | 0 | 0.9 | 0 | 0 | 0.1 | 0 |
| CCc1c(C(=O)C(N)=O)c2c(OCC(=O)O)cccc2n1Cc1ccccc1 [Varespladib] | 0 | 0 | 0 | 0 | 0 | 0 | 0 | 0 | 0 | 0 | 0 | 0 | 0 | 0 | 0.1 | 0 |
| CCC/C=C/C=C/C(=O)O[C@H]1/C(=C/C(=O)OC)C[C@H]2C[C@H]([C@@H](C)O)OC(=O)C[C@H](O)C[C@@H]3C[C@H](OC(C)=O)C(C)(C)[C@](O)(C[C@@H]4C/C(=C/C(=O)OC)C[C@H](/C=C/C(C)(C)[C@]1(O)O2)O4)O3 [Bryostatin 1] | 4.1 | 0.6 | 6.8 | 7.1 | 0 | 2.4 | 0.2 | 6.7 | 0 | 6.6 | 2.6 | 0.7 | 0.7 | 0 | 3.45 | 1.5 |
| C=CCN(/C=C1/C(=O)O[C@H](COC)[C@@]2(C)C1=C(O)C(=O)C1=C2[C@H](OC(C)=O)C[C@]2(C)C(=O)CC[C@@H]12)CC=C [Sonolisib] | 0.4 | 0 | 0 | 0 | 0 | 0 | 0 | 0 | 0 | 0 | 0 | 0.4 | 0 | 0 | 0.25 | 0.3 |
| CCc1cc2c(cc1N1CCC(N3CCOCC3)CC1)C(C)(C)c1[nH]c3cc(C#N)ccc3c1C2=O [Alectinib] | 0.6 | 0 | 0.2 | 0 | 0.3 | 0.7 | 1.2 | 1.7 | 0.8 | 0.1 | 0 | 1.7 | 0 | 0 | 0.3 | 1.5 |
| O=C(Nc1cc(Cl)cc2c1[nH]c1cnccc12)c1cccnc1 [PS-1145] | 7.2 | 1.1 | 0.8 | 2.7 | 0.1 | 0.8 | 0.7 | 2.2 | 2.3 | 3.2 | 0 | 3 | 0 | 0 | 2.75 | 4.6 |
| C[C@@H](C(=O)O)c1ccc(-c2ccccc2)c(F)c1 [Tarenflurbil] | 0.3 | 0 | 0 | 0 | 0 | 0 | 0 | 0 | 0 | 0 | 0 | 0 | 0 | 0 | 1.05 | 0 |
| Cc1ccc(C(=O)N(CCCN)[C@@H](c2oc3cc(Cl)ccc3c(=O)c2Cc2ccccc2)C(C)C)cc1 | 2.5 | 2.4 | 1.1 | 5.6 | 1.8 | 1.9 | 0 | 3.3 | 1.3 | 1.9 | 1.3 | 5 | 2.4 | 0 | 0 | 2.4 |
